Experiment [1] deals with T1, α-Synuclein (Homo sapiens, UniProt P37840). Kind of experiment: isothermal titration calorimetry. In kind it is binding. (In ITC the heat of successive injections is recorded.)
Experiment [2] has as its target T1, α-Synuclein. Kind of experiment: isothermal titration calorimetry. In kind it is binding. The source holds these as a separate data set.

Like-named read-outs stand apart in the source and are kept apart here.

As usually defined, the Kd is the free concentration of one partner at which half of the binding sites on the other are occupied at equilibrium, for simple one-to-one binding. High values mean a looser complex, low ones a tighter complex.

Take `CC1=C(/C=C/C(C)=C/C=C/C(C)=C/C(=O)O)C(C)(C)CCC1` [RA, retinoic acid]: in experiment [1], binding was characterised by a dissociation constant (Kd) of 0.5 µM.
As for `CCCCCCCC/C=C\CCCCCCCC(=O)O` [OA, oleic acid], the dissociation constant (Kd) in experiment [2] is 179 µM.
The same measure, in the same setting: the value for `CC/C=C\C/C=C\C/C=C\CCCCCCCC(=O)O` [ALA, α-linolenic acid] was 221 µM.
